Columns and labels:
[1] = target: Recombinant full-length human IDO1 (Homo sapiens (Human), UniProt P14902); experiment: IDO1 enzymatic assay (IDO inhibitory activity); type: biochemical; details: 2 nM enzyme, 5 μM L-tryptophan, pH6.5, 30 min pre-incubation, NFK quantified by LCMS; mean values if measured multiple times; read-out: hIDO activity (IC50 in nM)
Outline: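 N-His-tagged enzyme from E. coli at 2 nM in 37.5 mM phosphate pH6.5 with ascorbate, methylene blue, catalase; compounds 10 μM–0.5 nM, 0.6% DMSO, pre-incubated 30 min RT, then 5 μM L-tryptophan for 30 min RT. NFK quantified by LCMS against d5-tryptophan; IC50 from duplicate four-parameter fit, means where repeated.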

[2] = target: Recombinant human TDO comprising amino acids 19-407 (Homo sapiens (Human), UniProt P48775); experiment: TDO2 enzymatic assay (TDO inhibitory activity); type: biochemical; details: 15 nM enzyme, 200 μM L-tryptophan, pH7, 30 min pre-incubation, NFK quantified by LCMS; mean values if measured multiple times; read-out: hTDO activity (IC50 in nM)
Outline: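 His-tagged enzyme (15 nM, E. coli-expressed) in pH 7 phosphate buffer with ascorbate, catalase, BSA, Tween 20, 0.6% DMSO; 30 min RT pre-incubation with compound (10 μM–0.5 nM), then 200 μM L-tryptophan for 30 min RT. N′-formylkynurenine quantified by LCMS against deuterated tryptophan; IC50 by four-parameter fit, duplicates.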

Recombinant full-length human IDO1, sequence (P14902 whole entry): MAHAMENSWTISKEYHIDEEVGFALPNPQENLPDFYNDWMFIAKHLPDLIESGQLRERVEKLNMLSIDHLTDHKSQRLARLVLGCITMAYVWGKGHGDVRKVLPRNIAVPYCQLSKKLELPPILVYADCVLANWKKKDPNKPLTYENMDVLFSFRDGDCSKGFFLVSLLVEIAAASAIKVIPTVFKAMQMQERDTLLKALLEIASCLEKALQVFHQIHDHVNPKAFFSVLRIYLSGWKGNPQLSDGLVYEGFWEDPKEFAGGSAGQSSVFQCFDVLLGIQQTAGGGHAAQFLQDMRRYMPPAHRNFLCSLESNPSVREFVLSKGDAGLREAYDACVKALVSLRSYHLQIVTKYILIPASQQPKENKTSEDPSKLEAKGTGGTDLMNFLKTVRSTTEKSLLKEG
Recombinant human TDO comprising amino acids 19-407, sequence (P48775 19-406 limits assumed): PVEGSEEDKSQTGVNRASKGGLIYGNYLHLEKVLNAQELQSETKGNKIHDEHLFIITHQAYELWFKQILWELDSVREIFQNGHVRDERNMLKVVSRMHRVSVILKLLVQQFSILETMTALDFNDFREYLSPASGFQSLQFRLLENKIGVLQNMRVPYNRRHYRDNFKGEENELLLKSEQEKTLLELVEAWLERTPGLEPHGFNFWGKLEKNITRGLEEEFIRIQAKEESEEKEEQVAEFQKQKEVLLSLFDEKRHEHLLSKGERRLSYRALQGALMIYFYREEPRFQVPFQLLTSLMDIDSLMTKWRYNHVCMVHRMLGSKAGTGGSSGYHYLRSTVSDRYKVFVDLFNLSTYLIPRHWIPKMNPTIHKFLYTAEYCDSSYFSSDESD

IC50 [1] [nM]	IC50 [2] [nM]	SMILES
30	19.9	Cc1sc2cncn2c1C(O)C1(C)CCCC1 (racemic) [Example 140, rac-(1-Methyl-cyclopentyl)-(2-methyl-imidazo[5,1-b]thiazol-3-yl)-methanol]
85.8	2000	CCC1CCC(CC(O)c2c(C3CC3)sc3cncn23)CC1 (racemic) [Example 142, rac-1-(2-Cyclopropyl-imidazo[5,1-b]thiazol-3-yl)-2-(4-ethyl-cyclohexyl)-ethanol]
587	765	OC(c1cccc(C(F)(F)F)c1)c1c(C2CC2)sc2cncn12 (racemic) [Example 143, rac-(2-Cyclopropyl-imidazo[5,1-b]thiazol-3-yl)-(3-trifluoromethyl-phenyl)-methanol]
32.8	475	OC(c1ccc(F)cc1)c1c(C2CC2)sc2cncn12 (racemic) [Example 144, rac-(2-Cyclopropyl-imidazo[5,1-b]thiazol-3-yl)-(4-fluoro-phenyl)-methanol]
33.1	449	OC(c1cccc(F)c1)c1c(C2CC2)sc2cncn12 (racemic) [Example 145, rac-(2-Cyclopropyl-imidazo[5,1-b]thiazol-3-yl)-(3-fluoro-phenyl)-methanol]
1160	2530	Cc1ccccc1C(O)c1c(C2CC2)sc2cncn12 (racemic) [Example 148, rac-(2-Cyclopropyl-imidazo[5,1-b]thiazol-3-yl)-o-tolyl-methanol]
65.1	1820	OC(c1cccc(Cl)c1)c1c(C2CC2)sc2cncn12 (racemic) [Example 149, rac-(3-Chloro-phenyl)-(2-cyclopropyl-imidazo[5,1-b]thiazol-3-yl)-methanol]
687	3230	CCCC1CCC(CC(O)c2c(C3CC3)sc3cncn23)CC1 (racemic) [Example 150, rac-1-(2-Cyclopropyl-imidazo[5,1-b]thiazol-3-yl)-2-(4-propyl-cyclohexy-etethanol]
18.4	1130	OC1CCC(CC(O)c2c(C3CC3)sc3cncn23)CC1 (racemic) [Example 152, rac-4-[2-(2-Cyclopropyl-imidazo[5,1-b]thiazol-3-yl)-2-hydroxy-ethyl]-cyclohexanol]
305	2700	OC(c1ccc(C(F)(F)F)cc1)c1c(C2CC2)sc2cncn12 (racemic) [Example 159, rac-(2-Cyclopropyl-imidazo[5,1-b]thiazol-3-yl)-(4-trifluoromethyl-phenyl)-methanol]
2370	> 10200	CCNC1CCC(CC(O)c2c(C3CC3)sc3cncn23)CC1 (racemic) [Example 160, rac-1-(2-Cyclopropyl-imidazo[5,1-b]thiazol-3-yl)-2-(4-ethylamino-cyclohexyl)-ethanol]
14.2	382	OC(c1c(C2CC2)sc2cncn12)C1CCCCCC1 (racemic) [Example 165, rac-Cycloheptyl-(2-cyclopropyl-imidazo[5,1-b]thiazol-3-yl)-methanol]
415	2260	CC1(c2sc3cncn3c2C(O)C2CCCCC2)CC1 (racemic) [Example 170, rac-Cyclohexyl-[2-(1-methyl-cyclopropyl)-imidazo[5,1-b]thiazol-3-yl]-methanol]
90.3	1580	OC(c1cccs1)c1c(C2CC2)sc2cncn12 (racemic) [Example 171, rac-(2-Cyclopropyl-imidazo[5,1-b]thiazol-3-yl)-thiophen-2-yl-methanol]
4.97	28.7	CCc1sc2cncn2c1C(O)C1(C)CCCC1 (racemic) [Example 172, rac-(2-Ethyl-imidazo[5,1-b]thiazol-3-yl)-(1-methyl-cyclopentyl)-methanol]
77.3	1770	OC(c1ccsc1)c1c(C2CC2)sc2cncn12 (racemic) [Example 173, rac-(2-Cyclopropyl-imidazo[5,1-b]thiazol-3-yl)-thiophen-3-yl-methanol]
32.4	37.9	Cc1sc2cncn2c1C(O)C1(C)CCCCC1 (racemic) [Example 174, rac-(1-Methyl-cyclohexyl)-(2-methyl-imidazo[5,1-b]thiazol-3-yl)-methanol]
7.04	66.8	CCc1sc2cncn2c1C(O)C1(C)CCCCC1 (racemic) [Example 175, rac-(2-Ethyl-imidazo[5,1-b]thiazol-3-yl)-(1-methyl-cyclohexyl)-methanol]

Second part, the compound before the results:

SMILES	IC50 [1] [nM]	IC50 [2] [nM]
CC1(C(O)c2c(C(F)(F)F)sc3cncn23)CCCC1 (racemic) [Example 137, rac-(1-Methyl-cyclopentyl)-(2-trifluoromethyl-imidazo[5,1-b]thiazol-3-yl)-methanol]	16.3	54.7
OC(CC1CCC(C(F)F)CC1)c1c(C2CC2)sc2cncn12 (racemic) [Example 138, rac-1-(2-Cyclopropyl-imidazo[5,1-b]thiazol-3-yl)-2-(4-difluoromethyl-cyclohexyl)-ethanol]	24.3	467
OC(c1ccc(Cl)cc1)c1c(C2CC2)sc2cncn12 (racemic) [Example 146, rac-(4-Chloro-phenyl)-(2-cyclopropyl-imidazo[5,1-b]thiazol-3-yl)-methanol]	63.9	1090
COc1ccccc1C(O)c1c(C2CC2)sc2cncn12 (racemic) [Example 147, rac-(2-Cyclopropyl-imidazo[5,1-b]thiazol-3-yl)-(2-methoxy-phenyl)-methanol]	1110	6800
OC1CCC(C(O)c2c(C3CC3)sc3cncn23)CC1 (racemic) [Example 151, rac-4-[(2-Cyclopropyl-imidazo[5,1-b]thiazol-3-yl)-hydroxy-methyl]-cyclohexanol]	102	2640
Cc1cc(-c2sc3cncn3c2C(O)C2CCCCC2)cs1 (racemic) [Example 153, rac-Cyclohexyl-[2-(5-methyl-thiophen-3-yl)-imidazo[5,1-b]thiazol-3-yl]-methanol]	766	854
OC(c1c(Cc2ccccc2)sc2cncn12)C1CCCCC1 (racemic) [Example 154, rac-(2-Benzyl-imidazo[5,1-b]thiazol-3-yl)-cyclohexyl-methanol]	7110	4270
OC(CC1CCCCC1)c1c(C2CC(F)(F)C2)sc2cncn12 (racemic) [Example 155, rac-2-Cyclohexyl-1-[2-(3,3-difluoro-cyclobutyl)-imidazo[5,1-b]thiazol-3-yl]-ethanol]	485	1910
OC(c1c(C2CC(F)(F)C2)sc2cncn12)C1CCCCC1 (racemic) [Example 156, rac-Cyclohexyl-[2-(3,3-difluoro-cyclobutyl)-imidazo[5,1-b]thiazol-3-yl]-methanol]	1070	1780
COCc1sc2cncn2c1C(O)C1CCCCC1 (racemic) [Example 157, rac-Cyclohexyl-(2-methoxymethyl-imidazo[5,1-b]thiazol-3-yl)-methanol]	744	327
Cc1sc2cncn2c1C(O)C#Cc1ccccc1 (racemic) [Example 158, rac-1-(2-Methyl-imidazo[5,1-b]thiazol-3-yl)-3-phenyl-prop-2-yn-1-ol]	459	> 10200
CC1(C)CCC(C(O)c2c(C(F)(F)F)sc3cncn23)CC1 (racemic) [Example 161, rac-(4,4-Dimethyl-cyclohexyl)-(2-trifluoromethyl-imidazo[5,1-b]thiazol-3-yl)-methanol]	58.3	2770
Cc1sc2cncn2c1C(O)c1ccccc1 (racemic) [Example 162, rac-(2-Methyl-imidazo[5,1-b]thiazol-3-yl)-phenyl-methanol]	561	1000
OC(c1ccccc1F)c1c(C2CC2)sc2cncn12 (racemic) [Example 163, rac-(2-Cyclopropyl-imidazo[5,1-b]thiazol-3-yl)-(2-fluoro-phenyl)-methanol]	56.7	1290
OC(c1ccccc1Cl)c1c(C2CC2)sc2cncn12 (racemic) [Example 164, rac-(2-Chloro-phenyl)-(2-cyclopropyl-imidazo[5,1-b]thiazol-3-yl)-methanol]	1120	3020
CC1(C(O)c2c(C3CC3)sc3cncn23)CCCCCC1 (racemic) [Example 166, rac-(2-Cyclopropyl-imidazo[5,1-b]thiazol-3-yl)-(1-methyl-cycloheptyl)-methanol]	32.1	310
Cc1sc2cncn2c1C(O)C1CCN(c2ccccc2)CC1 (racemic) [Example 169, rac-(2-Methyl-imidazo[5,1-b]thiazol-3-yl)-(1-phenyl-piperidin-4-yl)-methanol]	537	3960
CCc1sc2cncn2c1C(O)c1ccccc1 (racemic) [Example 176, rac-(2-Ethyl-imidazo[5,1-b]thiazol-3-yl)-phenyl-methanol]	59.3	195
Cc1sc2cncn2c1C(O)CC1CCC(C)(C)CC1 (racemic) [Example 177, rac-2-(4,4-Dimethyl-cyclohexyl)-1-(2-methyl-imidazo[5,1-b]thiazol-3-yl)-ethanol]	199	1950

Source: patent US11267824B2, “Inhibitors of indoleamine 2,3-dioxygenase and/or tryptophan 2,3-dioxygenase” (IDORSIA PHARMACEUTICALS LTD, priority 2017, dated 2022)
